According to PubChem BioAssay (NCI):
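Compound exposure: 48 hours, 5 concentrations, 96-well plates. Here, GI50 denotes the concentration required for 50% inhibition of growth. TGI denotes the concentration required for complete inhibition of growth.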

Assays:
Test in all cases: NCI tumour cell line growth inhibition, 48 h
[1] = tested on: M19-MEL melanoma
[2] = tested on: XF 498 CNS
[3] = tested on: DMS 114 small cell lung
[4] = tested on: SNB-78 CNS
[5] = tested on: KM20L2 colon
[6] = tested on: DMS 273 small cell lung
[7] = tested on: HS 578T breast
[8] = tested on: NCI/ADR-RES ovarian
[9] = tested on: MDA-MB-231 breast
[10] = tested on: DU-145 prostate
[11] = tested on: BT-549 breast
[12] = tested on: HOP-18 NSCLC

Compound: NNC(=S)N/N=C/C(Cl)=C(\Cl)C(=O)O
- TGI [1]: > 100 µM
- TGI [2]: > 100 µM
- TGI [3]: > 100 µM
- TGI [4]: > 100 µM
- TGI [5]: > 100 µM
- TGI [6]: > 100 µM

Compound: COc1ccc(Nc2nc3ccccc3nc2C(=O)O)cc1
- TGI [7]: 85.9 µM
- TGI [8]: > 100 µM
- TGI [9]: > 100 µM
- TGI [10]: > 100 µM
- TGI [11]: > 100 µM

Compound: COc1ccc(C(=O)c2ccc(-n3c4ccccc4c4ccc5c(c43)C(=O)C=CC5=O)cc2)cc1
- TGI [7]: 4.51 µM
- TGI [8]: > 21.3 µM
- TGI [9]: 5.22 µM
- TGI [10]: > 21.8 µM
- TGI [11]: 8.06 µM

Compound: CC(=O)O/C=C\OC1CCCC1
- TGI [7]: > 100 µM
- TGI [8]: > 100 µM
- TGI [9]: > 100 µM
- TGI [10]: > 100 µM

Compound: N#CC(c1ccccc1)(c1ccccc1)[C@@H](c1ccccc1)[C@H](Cc1ccccc1)NS(=O)(=O)c1ccccc1
- TGI [7]: > 100 µM
- TGI [8]: > 100 µM
- TGI [9]: > 100 µM
- TGI [10]: > 100 µM
- TGI [11]: > 100 µM

Compound: CC(C)(C)C(=O)[CH-]C(=O)C(F)(F)C(F)(F)C(F)(F)F.CC(C)(C)C(=O)[CH-]C(=O)C(F)(F)C(F)(F)C(F)(F)F.[O-]CC1OC(O)C(O)C(O)C1O.[O-]CC1OC(O)C(O)C(O)C1O.[Ti+4]
- GI50 [1]: > 100 µM
- TGI [1]: > 100 µM
- GI50 [2]: > 100 µM
- TGI [2]: > 100 µM
- GI50 [3]: > 100 µM
- TGI [3]: > 100 µM
- GI50 [12]: > 100 µM
- TGI [12]: > 100 µM
- GI50 [5]: > 100 µM
- TGI [5]: > 100 µM

Compound: COc1ccc2c(c1)c1c3c(ccc4ncn2c43)N(CCN(C)C)CCN=1
- TGI [7]: 3.16 µM
- TGI [8]: 1.96 µM
- TGI [9]: 1.76 µM
- TGI [10]: 5.2 µM

Compound: O=C(/C=C/c1ccc(F)c(F)c1)OCCc1ccccc1
- TGI [7]: > 100 µM
- TGI [8]: > 100 µM
- TGI [9]: > 100 µM
- TGI [10]: > 100 µM
- TGI [11]: > 100 µM

Compound: Cc1cc2c(=O)[nH]nc(N)c2c(N)n1
- TGI [7]: > 100 µM
- TGI [8]: > 100 µM
- TGI [9]: > 100 µM
- TGI [10]: > 100 µM
- TGI [11]: > 100 µM

Compound: CN(NC(=O)c1cccs1)C1=NCCN1
- TGI [7]: > 100 µM
- TGI [8]: > 100 µM
- TGI [9]: > 100 µM
- TGI [11]: > 100 µM

Compound: Nc1ccc(C(=O)NN2C(=O)C(Cl)C2c2cccc([N+](=O)[O-])c2)cc1 (stereo not drawn)
- TGI [1]: 34.1 µM
- TGI [2]: 26.5 µM
- TGI [3]: 36.5 µM
- TGI [4]: > 100 µM
- TGI [5]: 43.6 µM
- TGI [6]: 32.5 µM

Compound: COC(=O)/C(=C\C(=O)c1ccc(Br)cc1)NN=C(c1ccccc1)c1ccccc1
- TGI [9]: > 10 µM
- TGI [10]: > 10 µM

Compound: COc1cccc(-c2cc(=O)c3cccnc3[nH]2)c1
- TGI [7]: > 100 µM
- TGI [9]: > 100 µM
- TGI [10]: > 100 µM
- TGI [11]: > 100 µM

Compound: NC(N)=NS(=O)(=O)c1ccc(NNc2c3ccccc3nc3c(C(=O)Nc4ccc(S(N)(=O)=O)cc4)cccc23)cc1
- TGI [7]: 88 µM
- TGI [8]: > 100 µM
- TGI [9]: > 100 µM
- TGI [10]: > 100 µM
- TGI [11]: 70.2 µM

Compound: O=c1cc(-c2ccccc2Cl)[nH]c2cc3c(cc12)OCO3
- TGI [7]: 4.06 µM
- TGI [8]: 0.0698 µM
- TGI [9]: 0.982 µM
- TGI [10]: > 18.8 µM

Compound: O=C(NC/C(Cl)=C/Cl)Nc1cccc2c1CCCC2
- TGI [7]: > 100 µM
- TGI [8]: > 100 µM
- TGI [9]: > 100 µM
- TGI [10]: > 100 µM

Compound: COc1cccc(/C=C2\C(=O)N(C(=O)Cc3ccccc3)N=C2C)c1
- TGI [1]: > 100 µM
- TGI [2]: > 100 µM
- TGI [3]: > 100 µM
- TGI [12]: > 100 µM
- TGI [4]: > 100 µM
- TGI [6]: > 100 µM

Compound: Cc1cc(C)c2c(c1)C(=O)C1(C2)Cc2c(ccc(C)c2C)C1=O (stereo not drawn)
- TGI [7]: > 100 µM
- TGI [8]: > 100 µM
- TGI [9]: > 100 µM
- TGI [10]: > 100 µM
- TGI [11]: > 100 µM

Compound: C/C(CN1C(=O)c2ccccc2C1=O)=N\NS(=O)(=O)c1ccc(F)cc1
- TGI [2]: > 100 µM
- TGI [3]: > 100 µM
- TGI [12]: > 100 µM
- TGI [4]: > 100 µM
- TGI [5]: > 100 µM
- TGI [6]: > 100 µM

Compound: COc1ccc(-n2c(=O)n(C)c(=O)n2-c2c(C)c(C)c(C)c(C)c2C)cc1
- TGI [7]: > 100 µM
- TGI [8]: > 100 µM
- TGI [9]: > 100 µM
- TGI [10]: > 100 µM
- TGI [11]: > 100 µM

Compound: CCCCCCCCCC(=O)CC(=O)c1c(O)cc(O)cc1O
- TGI [7]: 44.9 µM
- TGI [8]: 38.6 µM
- TGI [9]: > 75 µM
- TGI [10]: 57.9 µM

Compound: COc1ccc2[nH]c3c(C)c4cnccc4c(C)c3c2c1
- TGI [7]: > 10 µM
- TGI [8]: 6.94 µM
- TGI [9]: 6.77 µM
- TGI [10]: 9.93 µM
- TGI [11]: > 10 µM

Compound: Cc1cc(Br)cc(C)c1NC(=O)C(=O)C1C(=O)C(CC2C(=O)c3ccccc3C2=O)C(=O)CC1(C)C (stereo not drawn)
- TGI [7]: > 100 µM
- TGI [8]: > 100 µM
- TGI [9]: > 100 µM
- TGI [10]: > 100 µM
- TGI [11]: > 100 µM

Compound: CC1C(=O)C23OC[C@@]1(C)C1(O)CC[C@@H](C)[C@]21CC3=O (stereo partly drawn)
- TGI [7]: > 100 µM
- TGI [8]: > 100 µM
- TGI [9]: > 100 µM
- TGI [10]: > 100 µM
- TGI [11]: > 100 µM

Compound: CC1CC(NN(C)C)C2(C(N)=O)C(N)=NC(=O)C12C#N (stereo not drawn)
- TGI [7]: > 100 µM
- TGI [8]: > 100 µM
- TGI [9]: > 100 µM
- TGI [10]: > 100 µM

Compound: COP(=O)(C(/C=C/c1ccccc1)OC(C)=O)[C@@H]1CCCC[C@H]1N(CC(C)(C)C)C(C)=O (stereo partly drawn)
- TGI [7]: 31.1 µM
- TGI [8]: 42.2 µM
- TGI [9]: 31.6 µM
- TGI [10]: 32.5 µM
- TGI [11]: 33 µM

Compound: CC1(C)O[C@@H](CP(c2ccccc2)c2ccccc2)[C@H](CP(c2ccccc2)c2ccccc2)O1
- TGI [8]: 36 µM
- TGI [9]: 31.9 µM
- TGI [10]: > 100 µM
- TGI [11]: 9.02 µM

Compound: O=C(CCc1cccc(O)c1)NCCc1cccc(OCc2ccccc2)c1
- TGI [7]: 40.3 µM
- TGI [8]: 41.2 µM
- TGI [9]: 40.7 µM
- TGI [10]: > 80 µM
- TGI [11]: 32.5 µM

Compound: CCOC(=O)c1c(N2CCOCC2)[nH]c(=O)c(C(c2ccc(Cl)c([N+](=O)[O-])c2)c2c(O)c(C(=O)OCC)c(N3CCOCC3)[nH]c2=O)c1O
- TGI [7]: > 100 µM
- TGI [8]: > 100 µM
- TGI [9]: 41.9 µM
- TGI [10]: 55.8 µM
- TGI [11]: 75.1 µM

Compound: C[N+](C)(Cc1ccc(NC(=O)CCCC(=O)ON2C(=O)CCC2=O)cc1)c1ccccc1
- TGI [1]: > 100 µM
- TGI [12]: < 0.01 µM
- TGI [6]: > 100 µM

Compound: O=C1CSC(/C=C/c2ccccc2)N1c1ccc(-n2c(-c3ccccc3)nc3ccccc3c2=O)cc1 (stereo not drawn)
- TGI [7]: > 100 µM
- TGI [8]: > 100 µM
- TGI [9]: > 100 µM
- TGI [10]: > 100 µM
- TGI [11]: > 100 µM

Compound: Cc1cc(=O)[nH]c2c3c(ccc12)OC(C)(C)C=C3
- TGI [7]: 32.8 µM
- TGI [8]: > 100 µM
- TGI [9]: > 100 µM
- TGI [10]: > 100 µM
- TGI [11]: > 100 µM

Compound: O=C(Nc1cc(Cl)c(Cl)cc1Cl)C(=O)C(C(=O)c1ccc2ccccc2c1)C1OC(=O)c2ccccc21 (stereo not drawn)
- TGI [1]: 53.6 µM
- TGI [3]: 44.1 µM
- TGI [4]: 38.6 µM
